Data on 2 compounds can be found in US20080194551A1, “Acetylene Derivatives” (priority 2005, published 2008).

In data set [1] the target is T1, hmGluR5 (Homo sapiens, UniProt P41594).
T1 construct: expressed in transfected cells
The experiment in a line: Inhibition of quisqualate-induced inositol phosphate turnover in hmGluR5 expressing cells. The data set is classed as cell-based. Particulars: agonist quisqualate, read-out: IC50 concentration, inhibition of quisqualate-induced inositol phosphate turnover. The text has this: This can be determined in vitro for example at recombinant human metabotropic glutamate receptors, especially PLC-coupled subtypes thereof such as mGluR5, using different procedures like, for example, measurement of the inhibition of the agonist induced elevation of intracellular Ca^2+ concentration in accordance with L. P. Daggett et al., Neuropharm. Vol. 34, pages 871-886 (1995), P. J. Flor et al., J. Neurochem. Vol. 67, pages 58-63 (1996) or by determination to what extent the agonist induced elevation of the inositol phosphate turnover is inhibited as described by T. Knoepfel et al., Eur. J. Pharmacol. Vol. 288, pages 389-392 (1994), L. P. Daggett et al., Neuropharm. Vol. 67, pages 58-63 (1996) and references cited therein. Isolation and expression of human mGluR subtypes are described in U.S. Pat. No. 5,521,297. Selected agents of the invention show IC50 values for the inhibition of the agonist (e.g. glutamate or quisqualate) induced elevation of intracellular Ca2+ concentration or the agonist (e.g. glutamate or quisqualate) induced inositol phosphate turnover, measured in recombinant cells expressing hmGluR5a of about 1 nM to about 50 μM.
4-(3-Chloro-phenylamino)-1-(3-chloro-phenylethynyl)-cyclohexanol inhibits the quisqualate-induced inositol phosphate turnover in hmGluR5 expressing cells with an IC50 concentration of 4000 nM.

T1 sequence (P41594 21-1180 isoform P41594-2 limits assumed): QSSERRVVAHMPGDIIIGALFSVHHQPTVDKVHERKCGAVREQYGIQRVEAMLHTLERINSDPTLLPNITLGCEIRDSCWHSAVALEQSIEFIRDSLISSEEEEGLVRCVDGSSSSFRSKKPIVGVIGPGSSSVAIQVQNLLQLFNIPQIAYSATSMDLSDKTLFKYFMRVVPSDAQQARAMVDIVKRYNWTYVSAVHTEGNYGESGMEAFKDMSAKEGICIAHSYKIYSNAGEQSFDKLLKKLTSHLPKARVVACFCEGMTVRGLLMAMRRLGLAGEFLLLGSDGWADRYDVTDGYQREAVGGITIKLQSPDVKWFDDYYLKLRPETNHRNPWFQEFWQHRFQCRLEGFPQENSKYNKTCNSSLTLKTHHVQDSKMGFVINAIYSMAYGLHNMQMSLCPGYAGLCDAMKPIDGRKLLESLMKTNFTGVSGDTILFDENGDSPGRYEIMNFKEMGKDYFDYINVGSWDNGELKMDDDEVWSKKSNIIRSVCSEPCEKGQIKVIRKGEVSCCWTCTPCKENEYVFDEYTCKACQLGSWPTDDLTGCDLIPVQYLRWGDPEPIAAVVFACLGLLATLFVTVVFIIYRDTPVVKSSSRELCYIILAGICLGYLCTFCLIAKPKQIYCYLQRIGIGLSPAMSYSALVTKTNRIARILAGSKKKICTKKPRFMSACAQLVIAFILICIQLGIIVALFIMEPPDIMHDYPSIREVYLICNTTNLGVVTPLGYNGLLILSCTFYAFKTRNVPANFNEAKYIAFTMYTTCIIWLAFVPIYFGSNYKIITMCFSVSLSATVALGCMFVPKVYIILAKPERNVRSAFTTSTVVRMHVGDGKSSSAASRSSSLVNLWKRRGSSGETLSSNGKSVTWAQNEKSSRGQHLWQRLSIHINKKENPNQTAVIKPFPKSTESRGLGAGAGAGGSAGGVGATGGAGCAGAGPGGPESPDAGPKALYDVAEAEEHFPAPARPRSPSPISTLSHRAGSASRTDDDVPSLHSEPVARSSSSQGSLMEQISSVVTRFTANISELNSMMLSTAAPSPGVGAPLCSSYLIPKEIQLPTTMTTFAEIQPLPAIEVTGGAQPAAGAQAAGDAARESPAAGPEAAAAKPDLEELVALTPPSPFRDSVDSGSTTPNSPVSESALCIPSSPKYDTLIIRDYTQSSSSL

Regarding `OC1(C#Cc2cccc(Cl)c2)CCC(Nc2cc(Cl)cc(Cl)c2)CC1` (centres unmarked) [Example 2.6, 4-(3,5-Dichloro-phenylamino)-1-(3-chloro-phenylethynyl)-cyclohexanol], the melting point is 145 to 149 °C.
On to `OC1(C#Cc2cccc(Cl)c2)CCC(Nc2cccc(Cl)c2)CC1` (centres unmarked) [Example 2.2, 4-(3-Chloro-phenylamino)-1-(3-chloro-phenylethynyl)-cyclohexanol], for which the IC50 in data set [1] worked out at 4 µM.

For orientation: melting point means the temperature, or range, at which the solid turns liquid.
